Patent publication US11312726B2, “Thienodiazepine derivatives and application thereof” (priority 2017, dated 2022)
Read-outs that look alike come from different tables or passages of the source.

Columns and labels:
[1] = system: Human prostatic cancer PC-3 cell subcutaneous xenograft tumor; test: In vivo pharmacodynamics, PC-3 subcutaneous xenograft tumor model; details: 50 mg/kg PO BID × 21 days
Protocol: In Vivo Pharmacodynamics Study of Compound 32 on Human Prostatic Cancer PC-3 Cell Subcutaneous Xenograft Tumor Model
The formulation method of the test substance was the same as in Table 2, and the animal grouping and the dosage regimen were the same as in Table 3.
(§1) Strain: BALB/c nude mouse
(§2) Week-age and weight: 6-8 weeks of age, 18-22 grams of body weight
(§3) Supplier: Shanghai Sippr-BK laboratory animal Co. Ltd.
(§4) 3. Experiment Methods and Steps
Human prostatic cancer PC-3 cells were cultured in monolayer in vitro, and the culture conditions were F-12K culture medium (supplier: Gibco; article number: 21127-022; manufacturing batch number: 1868870) with 10% fetal bovine serum, 100 U/mL penicillin and 100 μg/mL streptomycin. The culture was performed at 37° C. in 5% CO2. Conventional digestion treatment with pancreatin-EDTA for passage was carried out twice a week. When the cells were in the exponential growth phase, the cells were harvested, counted, and inoculated.
(§5) 3.2 Tumor Cell Inoculation
0.1 mL of 10×10^6 PC-3 cells were subcutaneously inoculated into the right-back of each nude mouse. The grouping and administration was started when the average tumor volume reached 100-150 mm^3.
3.3 Tumor Measurement, Experiment Indices, and Statistical Analysis were the Same as MDA-MB-231 Model

[2] = system: Human breast cancer MDA-MB-231_luc cell subcutaneous xenograft tumor; test: In vivo pharmacodynamics, MDA-MB-231_luc subcutaneous xenograft tumor model; details: 50 mg/kg PO BID × 21 days
Protocol: In Vivo Pharmacodynamics Study of Compound 32 on Human Breast Cancer MDA-MB-231_luc Cell Subcutaneous Xenograft Tumor Model
as §1, §2, §3, §4
Human breast cancer MDA-MB-231_luc cells were cultured in monolayer in vitro and the culture conditions were RPMI-1640 culture medium (supplier: Gibco; article number: 22400-089; manufacturing batch number: 4868546) with 10% fetal bovine serum, 100 U/ml penicillin and 100 μg/ml streptomycin. The culture was performed at 37° C. in 5% CO2. Conventional digestion treatment with pancreatin-EDTA for passage was carried out twice a week. When the cells were in the exponential growth phase, the cells were harvested, counted, and inoculated.
as §5
0.2 mL of 10×10^6 MDA-MB-231_luc cells were subcutaneously inoculated into the right-back of each nude mouse (PBS:Matrigel=1:1). The grouping and administration was started when the average tumor volume reached 100-150 mm^3.
3.3 Tumor Measurement and Experiment Indices
The experiment index was to investigate whether tumor growth was inhibited, delayed or cured. Tumor diameter was measured twice a week with vernier calipers. The equation for calculating the tumor volume was V=0.5×a×b^2, wherein a and b represented the major and minor diameters of the tumor, respectively.
The tumor inhibition effect of the compound was evaluated by TGI (%) or relative tumor proliferation rate T/C (%). TGI (%) reflected the tumor growth inhibition rate.
Relative tumor proliferation rate T/C (%) was calculated according to the below equation: T/C %=TRTV/CRTV×100% (TRTV: RTV of the treatment group; CRTV: RTV of the negative control group). The relative tumor volume (RTV) was calculated according to the results of the tumor measurement. The calculation equation was RTV=Vt/V0, where V0 was the average tumor volume measured at the grouping and administration (i.e. d0), and Vt was the average tumor volume at the time of a certain measurement. TRTV and CRTV were obtained from the data on the same day.
At the end of the experiment, the tumor weight would be measured and the Tweight/Cweight percentage would be calculated. Tweight and Cweight represented the tumor weights of the administration group and the medium control group, respectively.
Statistical analysis included mean value and standard error (SEM) of the tumor volume of each group at each time point. […] The comparison between two groups was analyzed by T-test, and the comparison between three or more groups was analyzed by one-way ANOVA.

[3] = In vivo pharmacokinetics test in mice; details: female Balb/c mice; for AUC(0-inf): read-out: Curve area (0-inf) AUC0-inf; for AUC(0-t): read-out: Curve area (0-t) AUC0-last; for half-life: read-out: Half life T1/2 (converted)
Protocol: In Vivo Pharmacokinetics Test of Compound 32 in Mice
Female Balb/c mice were used as test animals. The compound 32 was administrated intravenously and intragastrically to mice, then the drug concentrations in the plasma at different time points were determined by the LC/MS/MS method. The in vivo pharmacokinetic behavior of compound 32 in mice was studied, and its pharmacokinetic characteristics were evaluated.
1.1 Experiment drug: Compound 32
1.2 Experiment animals: Sixteen healthy adult female Balb/c mice were divided into four groups according to the principle of similar body weight, with four mice in each group. The animals were purchased from Shanghai Lingchang BioTech Co., Ltd. of Shanghai SLAC Laboratory Animal Co., Ltd., and the animal production license number was SCXK (Shanghai) 2013-0018.
An appropriate amount of the sample was taken, 5% final volume of DMSO was added, and then 95% final volume of 20% HP-β-CD was added. The mixture was ultrasonically stirred to obtain a 0.5 mg/mL clear solution. After filtration, it was used for the intravenous administration.
An appropriate amount of the sample was taken, and dissolved in a 0.5% sodium carboxymethyl cellulose solution. The mixture was ultrasonically stirred to obtain a 0.5 mg/mL homogeneous suspension, which was used for the intragastric administration.
Eight female Balb/c mice were divided into two groups. After fasting overnight, the first group was administered intravenously with the administration volume of 2.5 mL/kg and the dosage of 1 mg/kg. […]
After the female Balb/c mice were intravenously administrated, 30 μL of blood was taken from different mice at each time point of 0.0833, 0.25, 0.5, 1, 2, 4, 8 and 24 hours, and placed in test tubes containing 2 μL of EDTA-K2; and after the female Balb/c mice were intragastrically administrated, 30 μL of blood was taken at an alternative location at each time point of 0.25, 0.5, 1, 2, 4, 8 and 24 hours, and placed in test tubes containing 2 μL of EDTA-K2. The tube was centrifuged at 3000 g for 15 minutes to separate the plasma, and the separated plasma was stored at −60° C. Animals could take food 2 hours after the administration.
The LC/MS/MS method was used to measure the content of the compound to be tested in the plasma after the intravenous and intragastric administration to the mice. The linear range of the method was 2.00-6000 nmol/L; the plasma samples were analyzed after the protein precipitation by acetonitrile treatment.

[4] = mouse, plasma, po, Intragastric, 3 mg/kg (table; text says 2 mg/kg)
[5] = mouse, plasma, Intravenous, 1 mg/kg

SMILES: Cc1sc2c(c1C)C(c1ccc(Cl)cc1)=N[C@@H](CC(=O)Nc1ccc3c(c1)COC3=O)c1nnc(C)n1-2 [Compound 32]
- tolerance of the animals [1]: well tolerated
- tumor inhibition effect compared with solvent control ([1]; 21st day): significant tumor inhibition effect
- relative tumor proliferation rate T/C ([1]; 21st day after administration): 44.63%
- tumor growth inhibition rate TGI ([1]; 21st day after administration): 58.4%
- change in body weight of the animals [2]: no significant change
- tolerance of the animals [2]: well tolerated
- relative tumor proliferation rate T/C ([2]; 21st day after administration): 52.99%
- tumor growth inhibition rate TGI ([2]; 21st day after administration): 54.85%
- absorption (in words) [3]: good absorption
- pharmacokinetic clearance (in words) [3]: low pharmacokinetic clearance
- AUC(0-inf) [3, 4]: 2.82 µM·h
- AUC(0-t) [3, 4]: 2.74 µM·h
- half-life [3, 4]: 1.47 h
- Tmax ([3]; mouse, plasma, po, Intragastric, 3 mg/kg (table; text says 2 mg/kg), read-out: Time to peak Tmax): 1 h
- Vd ([3]; mouse, plasma, Intravenous, 1 mg/kg, read-out: Apparent distribution volume Vdss): 1.19 L/kg
- clearance ([3]; mouse, plasma, Intravenous, 1 mg/kg, read-out: Clearance rate Cl): 12.5 mL/min/kg
- AUC(0-inf) [3, 5]: 2.5 µM·h
- AUC(0-t) [3, 5]: 2.49 µM·h
- half-life [3, 5]: 1.09 h
- Cmax ([3]; mouse, po, Intragastric, 3 mg/kg (table; text says 2 mg/kg), plasma, read-out: Drug concentration in blood Cmax): 930 nM
